The text below walks through data of ChEMBL document CHEMBL2073932, “Induction of human MDR1 gene expression by 2-acetylaminofluorene is mediated by effectors of the phosphoinositide 3-kinase pathway that activate NF-kappaB signaling” (Oncogene, 2002).

Data set [1] has as its target T1, ATP-dependent translocase ABCB1 (Homo sapiens, UniProt P08183). In words: TP_TRANSPORTER: RNase protection assay in HepG2 cells. It is filed as functional, cell-based.
Data set [2] concerns the target T1, ATP-dependent translocase ABCB1. In words: TP_TRANSPORTER: RNase protection assay in embryonic 293 cells. Format: functional, cell-based. The following applies: hek293.

T1 sequence (P08183 whole entry): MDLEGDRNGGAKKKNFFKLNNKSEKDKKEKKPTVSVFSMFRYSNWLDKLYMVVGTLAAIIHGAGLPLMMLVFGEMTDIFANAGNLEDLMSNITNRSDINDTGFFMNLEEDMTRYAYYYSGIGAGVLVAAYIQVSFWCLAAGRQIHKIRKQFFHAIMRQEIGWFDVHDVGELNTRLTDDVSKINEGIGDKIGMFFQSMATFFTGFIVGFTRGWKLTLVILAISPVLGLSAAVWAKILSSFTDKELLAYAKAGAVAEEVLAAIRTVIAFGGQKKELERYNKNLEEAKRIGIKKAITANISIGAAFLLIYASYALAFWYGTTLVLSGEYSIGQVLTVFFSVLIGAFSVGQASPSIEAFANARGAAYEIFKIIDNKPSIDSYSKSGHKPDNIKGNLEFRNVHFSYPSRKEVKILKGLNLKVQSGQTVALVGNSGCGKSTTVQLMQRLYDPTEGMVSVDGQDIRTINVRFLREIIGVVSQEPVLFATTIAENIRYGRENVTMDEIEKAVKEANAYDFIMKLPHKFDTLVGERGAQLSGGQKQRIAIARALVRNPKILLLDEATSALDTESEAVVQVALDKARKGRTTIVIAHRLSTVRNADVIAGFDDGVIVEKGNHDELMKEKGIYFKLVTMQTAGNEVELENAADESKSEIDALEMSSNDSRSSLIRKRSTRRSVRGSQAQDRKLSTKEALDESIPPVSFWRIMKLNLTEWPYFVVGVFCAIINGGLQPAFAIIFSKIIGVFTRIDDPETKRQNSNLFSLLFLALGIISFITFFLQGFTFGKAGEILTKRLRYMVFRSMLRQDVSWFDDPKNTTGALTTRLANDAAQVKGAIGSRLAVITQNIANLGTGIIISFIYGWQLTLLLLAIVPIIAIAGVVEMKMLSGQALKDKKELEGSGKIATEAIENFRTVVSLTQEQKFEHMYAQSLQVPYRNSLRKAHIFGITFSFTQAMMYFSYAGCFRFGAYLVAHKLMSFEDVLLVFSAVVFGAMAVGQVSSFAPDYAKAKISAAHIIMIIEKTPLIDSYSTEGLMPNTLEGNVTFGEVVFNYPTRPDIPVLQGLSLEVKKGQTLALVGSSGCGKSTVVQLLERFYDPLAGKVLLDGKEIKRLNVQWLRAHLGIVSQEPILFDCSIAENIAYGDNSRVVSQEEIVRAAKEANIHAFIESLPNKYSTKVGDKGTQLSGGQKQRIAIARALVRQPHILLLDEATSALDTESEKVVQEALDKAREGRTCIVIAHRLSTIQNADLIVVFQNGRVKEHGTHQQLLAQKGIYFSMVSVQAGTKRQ

With `CC(=O)Nc1ccc2c(c1)Cc1ccccc1-2` [2-ACETYLAMINOFLUORENE], the Activity result in data set [1] and in data set [2] was “inducer [+]” in each case.
